Assay results reported in patent publication US20260285850A1, “SUBSTITUTED OXAZOLIDINONES AND IMIDAZOLINONES AS HERBICIDES” (FMC CORPORATION, priority 2023, published 2026).

What was measured:
Assay type in all cases: in vivo
[1] = test system: barnyardgrass (Echinochloa crus-galli); experiment: Test A preemergence soil spray, visual injury rating 0-100; details: 10 days
How it was run: (§1)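 Seeds sown in loam-sand blend got a preemergence directed soil spray, or emerged plants (2-10 cm, one- to two-leaf) got a postemergence spray, of compound in non-phytotoxic solvent with surfactant. After 10 days in greenhouse, injury rated visually versus untreated controls on a 0 (no effect) to 100 (complete control) scale.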

[2] = test system: blackgrass (Alopecurus myosuroides); experiment: as above; details: 10 days
How it was run: as §1

[3] = test system: corn (Zea mays); experiment: as above; details: 10 days
How it was run: as §1

[4] = test system: green foxtail (Setaria viridis); experiment: as above; details: 10 days
How it was run: as §1

[5] = test system: kochia (Bassia scoparia); experiment: as above; details: 10 days
How it was run: as §1

[6] = test system: oat, wild (wild oat, Avena fatua); experiment: as above; details: 10 days
How it was run: as §1

[7] = test system: palmer (palmer amaranth, palmer pigweed, Amaranthus palmeri); experiment: as above; details: 10 days
How it was run: as §1

[8] = test system: ragweed (common ragweed, Ambrosia artemisiifolia); experiment: as above; details: 10 days
How it was run: as §1

[9] = test system: ryegrass, Italian (italian ryegrass, Lolium multiflorum); experiment: as above; details: 10 days
How it was run: as §1

[10] = test system: soybean (Glycine max); experiment: as above; details: 10 days
How it was run: as §1

[11] = test system: wheat (Triticum aestivum); experiment: as above; details: 10 days
How it was run: as §1

[12] = test system: barnyardgrass (Echinochloa crus-galli); experiment: Test A postemergence application, visual injury rating 0-100
How it was run: as §1

[13] = test system: blackgrass (Alopecurus myosuroides); experiment: as above
How it was run: as §1

[14] = test system: corn (Zea mays); experiment: as above
How it was run: as §1

[15] = test system: galium (catchweed bedstraw, Galium aparine); experiment: as above; details: Postemergence, 16 g ai/ha, greenhouse 10 days; 0 no effect, 100 complete control
How it was run: as §1

[16] = test system: green foxtail (Setaria viridis); experiment: as above
How it was run: as §1

[17] = test system: horseweed (Erigeron canadensis); experiment: as above
How it was run: as §1

[18] = test system: kochia (Bassia scoparia); experiment: as above
How it was run: as §1

[19] = test system: oat, wild (wild oat, Avena fatua); experiment: as above
How it was run: as §1

[20] = test system: palmer (palmer amaranth, palmer pigweed, Amaranthus palmeri); experiment: as above
How it was run: as §1

[21] = test system: ragweed (common ragweed, Ambrosia artemisiifolia); experiment: as above
How it was run: as §1

[22] = test system: ryegrass, Italian (italian ryegrass, Lolium multiflorum); experiment: as above
How it was run: as §1

[23] = test system: soybean (Glycine max); experiment: as above
How it was run: as §1

[24] = test system: wheat (Triticum aestivum); experiment: as above
How it was run: as §1

[25] = test system: barnyardgrass (Echinochloa crusgalli); experiment: Test B flooded paddy test, visual plant response rating 0-100; details: 250 g ai/ha, Flood, applied to paddy water, evaluated after 13 days
How it was run: (§2)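 In this flooded assay, 2-leaf seedlings received compound through the water layer, kept at 3 cm over the soil. Plants were held 13 days in a greenhouse and then visually compared with control pots.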

[26] = test system: ducksalad (Heteranthera limosa); experiment: as above; details: 250 g ai/ha, Flood, applied to paddy water, evaluated after 13 days
How it was run: as §2

[27] = test system: rice (Oryza sativa); experiment: as above; details: 250 g ai/ha, Flood, applied to paddy water, evaluated after 13 days
How it was run: as §2

[28] = test system: sedge, umbrella (small-flower umbrella sedge, Cyperus difformis); experiment: as above; details: 250 g ai/ha, Flood, applied to paddy water, evaluated after 13 days
How it was run: as §2

[29] = 62 g ai/ha, 0 = no effect, 100 = complete control
[30] = 62 g ai/ha, postemergence, 10 days, 0 = no effect, 100 = complete control
[31] = Postemergence, 16 g ai/ha, greenhouse 10 days, 0 no effect, 100 complete control

COC(=O)C1=CCC(NC(=O)C2(C)CN(c3cc(Cl)cc(Cl)c3)C(=O)O2)C1 (stereo not drawn) [Compound 149]
70: Wheat plant response rating (0-100) [11, 29] | Horseweed plant response rating (0-100) [17, 30]
80: Ryegrass, Italian plant response rating (0-100) [9, 29] | Kochia plant response rating (0 to 100 scale) [18, 31] | Ryegrass, Italian plant response rating (0-100) [22, 30] | Ryegrass, Italian plant response rating (0 to 100 scale) [22, 31] | Wheat plant response rating (0 to 100 scale) [24, 31]
95: Plant response rating, Barnyardgrass (0 to 100 scale, 0 is no effect and 100 is complete control) [25] | Plant response rating, Ducksalad (0 to 100 scale, 0 is no effect and 100 is complete control) [26] | Plant response rating, Sedge, Umbrella (0 to 100 scale, 0 is no effect and 100 is complete control) [28]
30: Corn plant response rating (0-100) [3, 29] | Foxtail, Green plant response rating ([4]; 16 g ai/ha, 0 to 100 scale) | Ragweed plant response rating (0-100) [8, 29] | Oat, Wild plant response rating (0 to 100 scale) [19, 31]
60: Barnyardgrass plant response rating ([1]; 16 g ai/ha, 0 to 100 scale) | Galium plant response rating (0 to 100 scale) [15] | Soybean plant response rating (0 to 100 scale) [23, 31]
50: Kochia plant response rating (0-100) [5, 29] | Horseweed plant response rating (0 to 100 scale) [17, 31] | Ragweed plant response rating (0-100) [21, 30]
90: Barnyardgrass plant response rating (0-100) [1, 29] | Foxtail, Green plant response rating (0-100) [4, 29] | Pigweed, Palmer plant response rating ([7]; 16 g ai/ha, 0 to 100 scale) | Blackgrass plant response rating (0-100) [13, 30] | Blackgrass plant response rating (0 to 100 scale) [13, 31] | Foxtail, Green plant response rating (0-100) [16, 30] | Foxtail, Green plant response rating (0 to 100 scale) [16, 31] | Kochia plant response rating (0-100) [18, 30] | Oat, Wild plant response rating (0-100) [19, 30] | Pigweed, Palmer plant response rating (0-100) [20, 30] | Pigweed, Palmer plant response rating (0 to 100 scale) [20, 31] | Soybean plant response rating (0-100) [23, 30] | Wheat plant response rating (0-100) [24, 30] | Plant response rating, Rice (0 to 100 scale, 0 is no effect and 100 is complete control) [27]
100: Pigweed, Palmer plant response rating (0-100) [7, 29] | Barnyardgrass plant response rating (0-100) [12, 30] | Barnyardgrass plant response rating (0 to 100 scale) [12, 31] | Corn plant response rating (0-100) [14, 30] | Corn plant response rating (0 to 100 scale) [14, 31]
20: Oat, Wild plant response rating (0-100) [6, 29] | Ryegrass, Italian plant response rating ([9]; 16 g ai/ha, 0 to 100 scale) | Wheat plant response rating ([11]; 16 g ai/ha, 0 to 100 scale) | Ragweed plant response rating (0 to 100 scale) [21, 31]
0: Blackgrass plant response rating ([2]; 16 g ai/ha, 0 to 100 scale) | Blackgrass plant response rating (0-100) [2, 29] | Corn plant response rating ([3]; 16 g ai/ha, 0 to 100 scale) | Kochia plant response rating ([5]; 16 g ai/ha, 0 to 100 scale) | Oat, Wild plant response rating ([6]; 16 g ai/ha, 0 to 100 scale) | Ragweed plant response rating ([8]; 16 g ai/ha, 0 to 100 scale) | Soybean plant response rating ([10]; 16 g ai/ha, 0 to 100 scale) | Soybean plant response rating (0-100) [10, 29]
